# Laboratory results: patent EP4285895A1, “NITROFURANTOIN ORAL DOSAGE FORM” (Adalvo Limited, priority 2022, dated 2023)
# Test: physchem
smiles,measurement,setting,value
"O=C1CN(N=Cc2ccc([N+](=O)[O-])o2)C(=O)N1 [Macrocrystals, 1-[[[5-nitro-2-furanyl]methylene]amino]-2,4-imidazolidinedione]",solubility,"0.01N HCl, simulated gastric fluid",140 µg/mL
same,solubility,"0.1N HCl, simulated gastric fluid",140 µg/mL
same,solubility,"acetate buffer, pH 4.5, aqueous buffer",50 µg/mL
same,solubility,"phosphate buffer, pH 6.8, aqueous buffer",200 µg/mL
same,solubility,"phosphate buffer, pH 7.5, aqueous buffer",620 µg/mL
same,solubility,water,160 µg/mL
